These results are taken from ChEMBL document CHEMBL1156990, “[(11)C]Dimebon, radiosynthesis and lipophilicity of a new potential PET agent for imaging of Alzheimer's disease and Huntington's disease” (Bioorg Med Chem Lett, 2010).

The series can be described thus: Octanol-water partition coefficient, log P by reverse phase HPLC method. The class given is physicochemical.

Each structure is given as a SMILES string.

The term logP denotes a log measure of how a compound divides between an organic and an aqueous phase. High values mean a more lipophilic compound, low ones a more hydrophilic compound. On to `Cc1ccc2c(c1)c1c(n2CCc2ccc(C)nc2)CCN([11CH3])C1`, for which the logP was 2.53.

In turn, `CC(=O)N(Cc1ccccc1O[11CH3])c1cnccc1Oc1ccccc1` returned a logP of 2.21.
